Reference: publication PMC7614775 (Nature chemical biology, 2022)

Assays:
[1] = tested on: IFNγ-stimulated STAT1 phosphorylation; experiment: Phospho-STAT western blot in 22Rv1 cells expressing JAK1 variants; assay type: cell-based, human; conditions: WT-JAK1 transfected 22Rv1 cells; 1 μM, 2 h
[2] = tested on: IL-6-stimulated STAT3 phosphorylation; experiment: Phospho-STAT western blot in mouse splenocytes; assay type: cell-based; conditions: WT mouse splenocytes
[3] = tested on: TYK2 (C838); conditions: human T cells in situ, 50 µM, 1 h; cited from earlier work
[4] = tested on: JAK1 (C817); conditions: human T cells in situ, 50 µM, 1 h; cited from earlier work
[5] = target: JAK1_C817 (Homo sapiens, UniProt P23458); experiment: Targeted MS-ABPP target engagement (TE50) in human cell lysates; assay type: binding
[6] = tested on: IFNα-stimulated STAT1 phosphorylation; experiment: HTRF phospho-STAT1 assay in human PBMCs; assay type: cell-based; conditions: compound 2 h, IFNα 100 ng/mL 30 min
[7] = target: TYK2_C838 (Homo sapiens, UniProt P29597); experiment: Targeted MS-ABPP target engagement (TE50) in human cell lysates; assay type: binding; conditions: read-out: target engagement value (TE50), TYK2_C838, 1 h, in vitro
[8] = tested on: IFNα-stimulated STAT1 phosphorylation (TYK2-dependent); experiment: Phospho-STAT western blot in 22Rv1 cells expressing TYK2 variants; assay type: cell-based, human; conditions: 2 h
[9] = target: JAK1 phosphorylation (pJAK1; Y1034/Y1035) (Homo sapiens, UniProt P23458); experiment: JAK1 phosphorylation western blot in 22Rv1 cells expressing JAK1 variants; assay type: cell-based; conditions: 22Rv1 cells transfected with WT or C817A-JAK1; independent of JAK1_C817
[10] = tested on: IL-12-STAT4 signaling (TYK2/JAK2-dependent); experiment: Phospho-STAT western blot in human PBMC-derived T-blasts; assay type: cell-based; conditions: compound 2 h, IL-12 12.5 ng/mL 15 min
[11] = tested on: GM-CSF stimulated STAT5 phosphorylation (JAK2-dependent); experiment: Phospho-STAT western blot in human PBMCs; assay type: cell-based; conditions: compound 2 h, GM-CSF 15 min
[12] = target: JAK1 trans-phosphorylation (Homo sapiens, UniProt P23458); experiment: Trans-phosphorylation assay in 22Rv1 cells; assay type: cell-based; conditions: cells expressing active WT-JAK1-FLAG; 2 µM, 2 h
[13] = tested on: recombinant JAK1 (WT, C810A, C817A); experiment: Gel-based ABPP in 22Rv1 cells; assay type: binding, human; conditions: 0.1 μM, 2 h, in situ
[14] = target: recombinant TYK2 (WT, C838A) (Homo sapiens, UniProt P29597); experiment: Gel-based ABPP in 22Rv1 cells; assay type: binding; conditions: 0.1 μM, 2 h, in situ
[15] = target: recombinant TYK2 (WT, C838A) (Homo sapiens, UniProt P29597, C838A); experiment: Gel-based ABPP in 22Rv1 cells; assay type: binding; conditions: 0.1 μM, 2 h, in situ
[16] = tested on: IL-2-stimulated STAT5 phosphorylation; experiment: Phospho-STAT western blot in human PBMCs; assay type: cell-based; conditions: compound 2 h, IL-2 20 U/mL 15 min
[17] = tested on: primary human T cells; experiment: T-cell viability (Near IR Live/Dead stain); assay type: cell-based; conditions: 24 h
[18] = tested on: IFNα-stimulated STAT1 phosphorylation; experiment: Phospho-STAT western blot in 22Rv1 cells expressing JAK1 variants; assay type: cell-based, human; conditions: cells expressing WT-, C810A-, or C817A-JAK1; 2 µM, 2 h
[19] = tested on: αCD3/αCD28-stimulated primary human T cells (CD25, CD69); experiment: T-cell activation analysis by flow cytometry; assay type: cell-based; conditions: αCD3/αCD28 co-stimulation, 24 h
[20] = tested on: IFNα-stimulated STAT1 phosphorylation; experiment: Phospho-STAT western blot in human PBMCs; assay type: cell-based; conditions: compound 2 h, IFNα 100 ng/mL 30 min
[21] = tested on: IL-6-stimulated STAT3 phosphorylation; experiment: Phospho-STAT western blot in human PBMCs; assay type: cell-based; conditions: compound 2 h, IL-6 25 ng/mL 30 min
[22] = In vivo pharmacokinetic analysis; conditions: male, CD-1 (ICR), mouse, plasma
[23] = tested on: IFNα-stimulated STAT1 phosphorylation; experiment: Ex vivo phospho-STAT assay, splenocytes of treated mice; assay type: in vivo, mouse; conditions: splenocytes of mice given 25 mg/kg s.c., 2 × 4 h
[24] = tested on: GM-CSF-STAT5 signaling; experiment: as above; assay type: in vivo, mouse; conditions: splenocytes of mice given 25 mg/kg s.c., 2 × 4 h
[25] = tested on: IL-6-STAT3 signaling; experiment: as above; assay type: in vivo, mouse; conditions: splenocytes of mice given 25 mg/kg s.c., 2 × 4 h
[26] = tested on: GM-CSF-STAT5 signaling; experiment: Phospho-STAT western blot in mouse splenocytes; assay type: cell-based
[27] = tested on: IFNα-dependent STAT1 phosphorylation; experiment: Phospho-STAT western blot in mouse splenocytes; assay type: cell-based; conditions: 0.01–0.1 µM
[28] = tested on: IL-2-dependent STAT5 phosphorylation; experiment: Phospho-STAT western blot in mouse splenocytes; assay type: cell-based; conditions: 0.01–0.1 µM
[29] = target: JAK1_C816 (Mus musculus, UniProt P52332); experiment: In vivo target engagement in spleen by targeted MS-ABPP; conditions: mice, s.c. 25 or 50 mg/kg, two doses over an 8 h period
[30] = tested on: IL-12-STAT4 signaling; experiment: Phospho-STAT western blot in mouse splenocytes; assay type: cell-based
[31] = tested on: IL-2-dependent STAT5 phosphorylation; experiment: Ex vivo phospho-STAT assay, splenocytes of treated mice; assay type: in vivo, mouse; conditions: splenocytes of mice given 25 mg/kg s.c., 2 × 4 h

Sequence of JAK1_C817 (P23458 whole entry): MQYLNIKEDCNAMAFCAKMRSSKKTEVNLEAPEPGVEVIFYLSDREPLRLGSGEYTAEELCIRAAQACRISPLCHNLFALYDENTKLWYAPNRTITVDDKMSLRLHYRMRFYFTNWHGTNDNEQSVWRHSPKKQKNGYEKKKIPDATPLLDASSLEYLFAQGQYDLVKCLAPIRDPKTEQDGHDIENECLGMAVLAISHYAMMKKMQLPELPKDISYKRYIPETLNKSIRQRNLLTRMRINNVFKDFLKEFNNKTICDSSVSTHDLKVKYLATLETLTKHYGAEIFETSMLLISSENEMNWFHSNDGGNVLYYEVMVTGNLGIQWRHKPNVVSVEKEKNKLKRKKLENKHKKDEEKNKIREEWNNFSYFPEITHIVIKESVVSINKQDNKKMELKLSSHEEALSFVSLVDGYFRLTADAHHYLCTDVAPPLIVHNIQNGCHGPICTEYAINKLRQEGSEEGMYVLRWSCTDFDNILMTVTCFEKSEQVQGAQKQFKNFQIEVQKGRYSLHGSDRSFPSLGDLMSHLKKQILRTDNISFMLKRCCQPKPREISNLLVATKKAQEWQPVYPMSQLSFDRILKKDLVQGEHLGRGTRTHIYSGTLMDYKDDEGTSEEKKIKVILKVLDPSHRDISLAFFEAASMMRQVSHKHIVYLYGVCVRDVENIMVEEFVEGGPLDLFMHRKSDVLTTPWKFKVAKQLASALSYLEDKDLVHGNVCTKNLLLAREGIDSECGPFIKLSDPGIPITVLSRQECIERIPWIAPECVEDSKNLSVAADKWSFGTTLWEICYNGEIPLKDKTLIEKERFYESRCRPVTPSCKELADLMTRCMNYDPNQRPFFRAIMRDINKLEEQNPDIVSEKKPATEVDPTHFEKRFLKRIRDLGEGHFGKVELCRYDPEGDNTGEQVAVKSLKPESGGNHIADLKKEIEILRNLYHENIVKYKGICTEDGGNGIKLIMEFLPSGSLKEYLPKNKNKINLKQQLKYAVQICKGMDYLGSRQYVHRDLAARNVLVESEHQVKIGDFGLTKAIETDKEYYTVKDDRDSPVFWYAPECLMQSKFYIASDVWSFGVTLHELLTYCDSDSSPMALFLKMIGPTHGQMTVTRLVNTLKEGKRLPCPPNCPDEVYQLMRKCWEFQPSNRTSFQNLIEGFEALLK
Sequence of JAK1_C816 (P52332 whole entry): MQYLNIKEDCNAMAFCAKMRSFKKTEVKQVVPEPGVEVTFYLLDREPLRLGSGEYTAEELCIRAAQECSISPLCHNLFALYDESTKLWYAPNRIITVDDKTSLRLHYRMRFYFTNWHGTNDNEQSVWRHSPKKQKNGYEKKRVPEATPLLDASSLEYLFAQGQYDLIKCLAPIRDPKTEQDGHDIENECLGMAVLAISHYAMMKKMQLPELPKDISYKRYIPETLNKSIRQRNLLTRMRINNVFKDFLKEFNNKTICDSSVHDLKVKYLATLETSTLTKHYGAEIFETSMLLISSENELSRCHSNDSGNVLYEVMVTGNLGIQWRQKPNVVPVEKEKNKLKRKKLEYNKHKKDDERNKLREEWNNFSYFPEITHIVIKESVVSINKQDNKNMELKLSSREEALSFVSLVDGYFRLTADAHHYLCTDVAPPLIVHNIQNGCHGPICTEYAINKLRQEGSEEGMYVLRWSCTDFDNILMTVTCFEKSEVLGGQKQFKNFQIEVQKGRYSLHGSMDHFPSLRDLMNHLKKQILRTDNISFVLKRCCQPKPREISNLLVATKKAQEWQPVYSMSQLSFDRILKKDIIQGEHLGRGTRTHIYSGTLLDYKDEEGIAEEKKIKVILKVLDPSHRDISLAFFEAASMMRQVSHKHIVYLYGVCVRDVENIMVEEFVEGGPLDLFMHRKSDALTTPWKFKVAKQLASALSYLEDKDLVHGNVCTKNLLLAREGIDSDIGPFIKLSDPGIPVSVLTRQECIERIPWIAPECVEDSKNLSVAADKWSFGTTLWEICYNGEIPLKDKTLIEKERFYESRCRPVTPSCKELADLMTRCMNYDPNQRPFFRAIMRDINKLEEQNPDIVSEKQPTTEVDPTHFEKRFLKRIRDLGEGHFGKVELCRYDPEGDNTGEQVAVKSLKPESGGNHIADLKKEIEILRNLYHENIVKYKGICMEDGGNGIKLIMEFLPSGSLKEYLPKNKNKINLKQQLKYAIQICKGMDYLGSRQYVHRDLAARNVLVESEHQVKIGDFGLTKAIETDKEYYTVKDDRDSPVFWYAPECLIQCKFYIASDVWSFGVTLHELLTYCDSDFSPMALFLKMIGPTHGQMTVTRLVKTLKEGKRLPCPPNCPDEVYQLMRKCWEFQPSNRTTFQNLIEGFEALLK
Sequence of JAK1 phosphorylation (pJAK1; Y1034/Y1035) (P23458 whole entry): as the sequence (P23458 whole entry) above
Sequence of JAK1 trans-phosphorylation (P23458 whole entry): as above
Sequence of TYK2_C838 (P29597 whole entry): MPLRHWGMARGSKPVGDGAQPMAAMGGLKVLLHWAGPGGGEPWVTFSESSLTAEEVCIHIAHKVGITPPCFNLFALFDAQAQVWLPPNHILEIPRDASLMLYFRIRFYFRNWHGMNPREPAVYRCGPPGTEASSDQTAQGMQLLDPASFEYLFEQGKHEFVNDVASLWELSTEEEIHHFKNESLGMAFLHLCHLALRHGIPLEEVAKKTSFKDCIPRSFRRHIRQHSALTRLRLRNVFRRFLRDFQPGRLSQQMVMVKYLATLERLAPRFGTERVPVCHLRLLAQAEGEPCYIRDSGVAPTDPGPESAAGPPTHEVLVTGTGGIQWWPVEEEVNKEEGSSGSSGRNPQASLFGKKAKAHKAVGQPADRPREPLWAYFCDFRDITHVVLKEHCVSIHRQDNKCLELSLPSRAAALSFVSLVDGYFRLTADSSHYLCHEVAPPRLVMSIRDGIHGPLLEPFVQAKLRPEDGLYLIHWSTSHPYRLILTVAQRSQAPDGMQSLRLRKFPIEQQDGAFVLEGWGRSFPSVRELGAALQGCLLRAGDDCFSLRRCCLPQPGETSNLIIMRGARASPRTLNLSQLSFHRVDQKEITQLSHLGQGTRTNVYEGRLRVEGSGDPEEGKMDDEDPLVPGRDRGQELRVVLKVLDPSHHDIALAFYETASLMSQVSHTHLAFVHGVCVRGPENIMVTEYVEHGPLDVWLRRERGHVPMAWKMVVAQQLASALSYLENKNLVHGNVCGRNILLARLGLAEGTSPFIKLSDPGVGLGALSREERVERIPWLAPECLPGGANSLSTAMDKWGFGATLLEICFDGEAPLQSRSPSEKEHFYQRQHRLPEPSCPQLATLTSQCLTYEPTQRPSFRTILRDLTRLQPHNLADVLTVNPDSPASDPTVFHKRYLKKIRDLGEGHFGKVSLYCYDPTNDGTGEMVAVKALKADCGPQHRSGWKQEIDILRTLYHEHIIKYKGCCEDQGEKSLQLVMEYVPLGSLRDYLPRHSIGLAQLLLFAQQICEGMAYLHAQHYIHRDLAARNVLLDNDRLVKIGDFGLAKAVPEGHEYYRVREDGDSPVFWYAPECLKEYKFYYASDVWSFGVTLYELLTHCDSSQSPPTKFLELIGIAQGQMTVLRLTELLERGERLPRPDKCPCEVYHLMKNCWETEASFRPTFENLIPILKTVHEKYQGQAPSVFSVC
Sequence of recombinant TYK2 (WT, C838A) (Homo sapiens, UniProt P29597, C838A) (P29597 whole entry C838A): as the sequence (P29597 whole entry) above, with C838A counted along it
Sequence of recombinant TYK2 (WT, C838A) (Homo sapiens, UniProt P29597) (P29597 whole entry C838A): as the sequence (P29597 whole entry) above, with C838A counted along it

## CC[C@@H]1CN(C(=O)NCC(F)(F)F)C[C@@H]1c1cnc2cnc3[nH]ccc3n12 [upadacitinib, reference compound]
[1]
  effect on IFNγ-stimulated STAT1 phosphorylation: completely inhibited
[2]
  effect on IL-6-stimulated STAT3 phosphorylation: suppressed

## C=CC(=O)N(c1ccccc1)c1ccc(Br)cc1 [KB05]
[3]
  engagement of TYK2 C838: substantially engaged
[4]
  engagement of JAK1 C817: substantially engaged

## CC#CC(=O)N1CCCC(c2ccc(Cl)cc2)C1 (stereo not drawn) [compound 1]
[5]; 1 h compound treatment of human PBMC or Jurkat cell proteome
  target engagement value (TE50), JAK1_C817: ~two-fold less active
[6]
  IC50, IFNα-stimulated STAT1 phosphorylation (HTRF): ~two-fold less active

## CS(=O)(=O)N1CC[C@@H](C#CC(=O)N2CCC[C@H](c3ccc(Cl)c(Cl)c3)C2)C1 [5b]
[5]; Jurkat T-cell lysate, 10, 30 and 60 minutes
  change of TE50 with preincubation time: time-dependent decreases
[5]; TE50 and pSTAT pIC50
  potency compared with the corresponding diastereomers (5c and 5d): substantially more potent

## CC#CC(=O)N1CCCC(c2ccc(Cl)cc2)C1 (single isomer, unassigned; (-)) [(−)-1a]
[5]; read-out: target engagement value (TE50), JAK1_C817, 1 h compound treatment of human PBMC or Jurkat cell proteome
  IC50: 2.1 µM
[7]
  IC50: 45 µM
[6]; read-out: IC50, IFNα-stimulated STAT1 phosphorylation (HTRF)
  IC50: 1.4 µM

## deucravacitinib [BMS-986165, reference compound]
[8]; C838A-TYK2 expressing 22Rv1 cells
  effect on IFNα-induced STAT1 phosphorylation: blocked
[8]; WT-TYK2 expressing 22Rv1 cells
  effect on IFNα-induced STAT1 phosphorylation: blocked
[9]
  effect on JAK1 phosphorylation: suppressed
[10]
  effect on IL-12-STAT4 signaling: inhibited
[11]
  effect on GM-CSF stimulated STAT5 phosphorylation: inactive
[1]
  effect on IFNγ-stimulated STAT1 phosphorylation: Neither VVD-118313 nor the TYK2 inhibitor BMS-986165 altered
[2]
  effect on IL-6-stimulated STAT3 phosphorylation: suppressed
[12]
  effect on trans-phosphorylation of inactive JAK1-HA variants: blocked JAK1 trans-phosphorylation in a C817-independent manner

## C#CCCS(=O)(=O)N1CCC(C#CC(=O)N2CCCC(c3ccc(Cl)c(Cl)c3)C2)C1 (stereo not drawn) [alkyne probe 6]
[13]
  probe labeling of WT- and C810A-JAK1: reacted
[14]
  probe labeling of WT-TYK2: reacted
[15]
  probe labeling of C838A-TYK2: but not a C838A-TYK2 mutant

## C[C@@H]1CCN(C(=O)CC#N)C[C@@H]1N(C)c1ncnc2[nH]ccc12 [tofacitinib, reference compound]
[16]
  effect on IL-2-pSTAT5: blocked
[17]
  T-cell viability: Neither compound affected
[18]
  effect on IFNα-stimulated pSTAT1: equivalently blocked
[19]
  early-stage activation marker CD69: Neither compound affected
[1]
  effect on IFNγ-stimulated STAT1 phosphorylation: completely inhibited
[20]
  effect on IFNα-pSTAT1: blocked
[2]
  effect on IL-6-stimulated STAT3 phosphorylation: suppressed
[21]
  effect on IL-6-pSTAT3: blocked

## CS(=O)(=O)N1CCC(C#CC(=O)N2CCCC(c3ccc(Cl)c(Cl)c3)C2)C1 (stereo not drawn) [compound 5]
[22]; iv, 1 mg/kg
  AUC(0-t): 149 ng·h/mL
  Cmax: 1610 ng/mL
  clearance: 112 mL/min/kg
  half-life: 9.18 min
[22]; sc, 25 mg/kg
  AUC(0-t): 2930 ng·h/mL
  Cmax: 3380 ng/mL
  bioavailability: 78.3%
  half-life: 21.6 min
[23]
  IFNα-stimulated STAT1 phosphorylation vs vehicle-treated mice: substantial impairments
[16]
  effect on IL-2-pSTAT5: potently inhibited
[24]
  GM-CSF-STAT5 signaling vs vehicle-treated mice: unaffected
[25]
  IL-6-STAT3 signaling vs vehicle-treated mice: unaffected
[26]
  effect on GM-CSF-STAT5 signaling: sparing
[10]
  effect on IL-12-STAT4 signaling: sparing
[11]
  effect on GM-CSF stimulated STAT5 phosphorylation: sparing
[20]
  effect on IFNα-pSTAT1: potently inhibited
[21]
  effect on IL-6-pSTAT3: potently inhibited
[27]
  effect on IFNα-dependent STAT1 phosphorylation: inhibited
[28]
  effect on IL-2-dependent STAT5 phosphorylation: inhibited
[29]
  engagement of JAK1_C816 in spleen: 75%
[30]
  effect on IL-12-STAT4 signaling: sparing
[31]
  IL-2-dependent STAT5 phosphorylation vs vehicle-treated mice: not substantially altered

## COc1ccc2c(c1)CCCN2C(=O)CCl [KB02]
[3]
  engagement of TYK2 C838: substantially engaged
[4]
  engagement of JAK1 C817: substantially engaged
